Assay results from patent US11279714B2, “Anti-infective compounds” (priority 2014, dated 2022).
Converted amounts (≈) assume the structure as drawn.

What was measured:
[1] = system: M. tuberculosis H37Rv expressing the green fluorescent protein (H37Rv-GFP); test: microbe, parasite or virus in culture; type: cell-based; conditions: Mycobacterium tuberculosis, H37RV, 120 h; read-out: QUM (MIC50)
[2] = system: Raw 264.7 cells infected with H37Rv-GFP; test: microbe, parasite or virus in culture; type: cell-based, M. tuberculosis; conditions: Mycobacterium tuberculosis, H37RV, 120 h; read-out: QIM (MIC50)

SMILES | melting point | MIC50 [1] | MIC50 [2]
O=C(Nc1ccc(CN2CCC(c3ccc(Cl)cc3)CC2)cc1)c1cc2sc(N3CCOCC3)nc2s1 [Compound 200] | 254.6 °C | > 20 µM | > 20 µM
CN(C)C(=O)C1CCN(c2nc3sc(C(=O)Nc4ccc5oc(CN6CCOCC6)nc5c4)cc3s2)CC1 [Compound 196] | 239 °C | 1 to 20 µM (≈ 0.555 to 11.1 µg/mL) | 1 to 20 µM (≈ 0.555 to 11.1 µg/mL)
COc1ccc(NC(=O)c2cc3sc(N4CCCC(OCc5ccccc5)C4)nc3s2)cc1 (stereo not drawn) [Compound 95] | 169 °C | > 20 µM | < 1 µM
CC1CCN(c2ccc(NC(=O)c3cc4sc(N5CCOCC5)nc4s3)cc2)CC1 [Compound 194] | 278 °C | 1 to 20 µM (≈ 0.443 to 8.85 µg/mL) | < 1 µM
O=C(Nc1ccc(Cl)cc1)c1cc2sc(N3CCCCC3)nc2s1 [Compound 45] | 275.2 °C | 1 to 20 µM (≈ 0.378 to 7.56 µg/mL) | < 1 µM
O=C(Nc1ccc(F)nc1)c1cc2sc(N3CCOCC3)nc2s1 [Compound 84] | 262.3 °C | < 1 µM | < 1 µM
O=C(Nc1ccc(F)cc1)c1cc2sc(N3CCNCC3)nc2s1 [Compound 139] | 247.5 °C | 1 to 20 µM (≈ 0.362 to 7.25 µg/mL) | 1 to 20 µM (≈ 0.362 to 7.25 µg/mL)
Cc1nc2cc(NC(=O)c3cc4sc(N5CCCC(C(=O)N(C)C)C5)nc4s3)ccc2o1 (stereo not drawn) [Compound 178] | 133.6 °C | 1 to 20 µM (≈ 0.47 to 9.39 µg/mL) | 1 to 20 µM (≈ 0.47 to 9.39 µg/mL)
Cc1nc2cc(NC(=O)c3cc4sc(N5CCC(O)CC5)nc4s3)ccc2o1 [Compound 122] | 238.5 °C | < 1 µM | < 1 µM
O=C(Nc1cccc(Oc2ccccc2)c1)c1cc2sc(N3CCOCC3)nc2s1 [Compound 87] | 169.5 °C | 1 to 20 µM (≈ 0.438 to 8.75 µg/mL) | 1 to 20 µM (≈ 0.438 to 8.75 µg/mL)
COc1ccc(NC(=O)c2cc3sc(C(C)C)nc3s2)cc1 [Compound 115] | 149 °C | 1 to 20 µM (≈ 0.332 to 6.65 µg/mL) | < 1 µM
COC1CCN(c2nc3sc(C(=O)Nc4ccc5oc(C)nc5c4)cc3s2)CC1 [Compound 124] | 237.9 °C | < 1 µM | < 1 µM
Cc1nc2cc(NC(=O)C3CCc4nc(N5CCOCC5)sc4C3)ccc2o1 (stereo not drawn) [Compound 170] | 239 °C | > 20 µM | > 20 µM
O=C(c1cc2nc(N3CCCCC3)sc2s1)N1CCOCC1 [Compound 26] | 188 °C | > 20 µM | > 20 µM
Cn1cc2ccc(NC(=O)c3cc4sc(N5CCOCC5)nc4s3)cc2n1 [Compound 132] | 313.7 °C | > 20 µM | < 1 µM
Cc1nc2cc(NC(=O)c3cn4nc(N5CCOCC5)sc4n3)ccc2o1 [Compound 189] | 311 °C | > 20 µM | > 20 µM
COc1ccc(CN(c2nc3sc(C(=O)Nc4ccc(OC)cc4)cc3s2)C(C)C)cc1 [Compound 121] | 131 °C | > 20 µM | < 1 µM
Cc1nc2ccc(NC(=O)c3cc4sc(N5CCCCC5)nc4s3)cc2o1 [Compound 48] | 259.2 °C | < 1 µM | < 1 µM

SMILES | melting point | MIC50 [1] | MIC50 [2]
O=C(Nc1ccc(-c2n[nH]cc2F)cc1)c1cc2sc(N3CCOCC3)nc2s1.O=C(O)C(F)(F)F [Compound 159] | 287.2 °C | 1 to 20 µM | < 1 µM
COCn1c(N2CCOCC2)nc2sc(C(=O)Nc3ccc4oc(C)nc4c3)cc21 [Compound 179] | 117.2 °C | > 20 µM | > 20 µM
O=C(Nc1ccccc1)c1cc2nc(N3CCCCC3)sc2s1 [Compound 25] | 222.6 °C | > 20 µM | 1 to 20 µM (≈ 0.343 to 6.87 µg/mL)
Cc1nc2cc(NC(=O)c3cc4sc(N5CC(C)OC(C)C5)nc4s3)ccc2o1 (stereo not drawn) [Compound 180] | 274 °C | 1 to 20 µM (≈ 0.429 to 8.57 µg/mL) | < 1 µM
Cc1nc2cc(NC(=O)c3cc4sc(N5CCOC(c6ccccc6)C5)nc4s3)ccc2o1 (stereo not drawn) [Compound 174] | 223.5 °C | 1 to 20 µM (≈ 0.477 to 9.53 µg/mL) | < 1 µM
COc1ccc(NC(=O)c2csc3nc(N4CCCCC4)sc23)cc1 [Compound 73] | 209.8 °C | > 20 µM | > 20 µM
O=C(Nc1ccc(CN2CCN(c3ccc(Cl)cc3)CC2)cc1)c1cc2sc(N3CCOCC3)nc2s1 [Compound 199] | 249.9 °C | 1 to 20 µM (≈ 0.554 to 11.1 µg/mL) | < 1 µM
CCC1COCCN1c1nc2sc(C(=O)Nc3ccc4oc(C)nc4c3)cc2s1 (stereo not drawn) [Compound 151] | 176 °C | 1 to 20 µM (≈ 0.429 to 8.57 µg/mL) | < 1 µM
Cc1nc2cc(NC(=O)N3CCc4sc(N5CCOCC5)cc4C3)ccc2o1 [Compound 191] | 171.7 °C | > 20 µM | > 20 µM
CCN(Cc1ccc(OC)cc1)c1nc2sc(C(=O)Nc3ccc(OC)cc3)cc2s1 [Compound 114] | 112 °C | 1 to 20 µM (≈ 0.454 to 9.07 µg/mL) | < 1 µM
O=C(Nc1ccccc1)c1cc2sc(N3CCCCC3)nc2s1 [Compound 46] | 259.1 °C | 1 to 20 µM (≈ 0.343 to 6.87 µg/mL) | < 1 µM
CC(CNC(=O)c1ccc2nc(N3CCCCC3)sc2c1)c1ccccc1 (stereo not drawn) [Compound 1] | 196 °C | > 20 µM | > 20 µM
CC(C)(C)OC(=O)n1ncc2cc(NC(=O)c3cc4sc(N5CCOCC5)nc4s3)ccc21 [Compound 88] | 331.7 °C | > 20 µM | > 20 µM
COc1ccc(NC(=O)c2cc3sc(N4CCC4)nc3s2)cc1 [Compound 80] | 256 °C | 1 to 20 µM (≈ 0.345 to 6.91 µg/mL) | < 1 µM
COc1ccc(NCc2cc3sc(N4CCCCC4)nc3s2)cc1 [Compound 69] | 105 °C | > 20 µM | > 20 µM
O=C(Nc1ccc2ncccc2c1)c1cc2sc(N3CCCCC3)nc2s1 [Compound 40] | 279.5 °C | 1 to 20 µM (≈ 0.395 to 7.89 µg/mL) | < 1 µM
COc1ccc(OCCNC(=O)c2cc3sc(N4CCOCC4)nc3s2)cc1 [Compound 82] | 172.1 °C | > 20 µM | 1 to 20 µM (≈ 0.42 to 8.39 µg/mL)
